Source: patent US20220096516A1, “OLIGONUCLEOTIDE MOLECULE AND APPLICATION THEREOF IN TUMOR THERAPY” (Ractigen Therapeutics, priority 2019, published 2022)
d = 2'-deoxy (DNA); r = 2'-OH (RNA)

Tested on: LHPP gene
Assay: High-throughput screening of saRNAs targeting LHPP promoter: LHPP mRNA by one-step RT-qPCR in Huh7 cells
Type: cell-based, human
Conditions: 10 nM saRNA, 72 hours, relative to control (Mock)
Method in brief: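 LHPP transcript level relative to mock, normalised to the geometric mean of the HPRT1 and TBP reference genes, measured by one-step RT-qPCR on crude lysates. Huh7 cells had been RNAiMax-transfected with each saRNA at 10 nM for 72 h.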

Row | Substance | Fold of changes in relative LHPP mRNA expression level [fold] | Fold of changes in relative LHPP mRNA expression level (log2)
1 | RAG7-179: saRNA duplex; sense CAAUUUGCCUUUGACCUUUTT (SEQ ID NO: 39), antisense AAAGGUCAAAGGCAAAUUGTT (SEQ ID NO: 203) (sugars from the 5' end r19 d2, backbone not given here) | 1.45 | 0.53
2 | RAG7-180: saRNA duplex; sense UCAAUUUGCCUUUGACCUUTT (SEQ ID NO: 58), antisense AAGGUCAAAGGCAAAUUGATT (SEQ ID NO: 222) (sugars from the 5' end r19 d2, backbone not given here) | 1.35 | 0.43
3 | RAG7-181: saRNA duplex; sense CUCAAUUUGCCUUUGACCUTT (SEQ ID NO: 97), antisense AGGUCAAAGGCAAAUUGAGTT (SEQ ID NO: 261) (sugars from the 5' end r19 d2, backbone not given here) | 1.22 | 0.29
4 | RAG7-182: saRNA duplex; sense UCUCAAUUUGCCUUUGACCTT (SEQ ID NO: 85), antisense GGUCAAAGGCAAAUUGAGATT (SEQ ID NO: 249) (sugars from the 5' end r19 d2, backbone not given here) | 1.26 | 0.33
5 | RAG7-183: saRNA duplex; sense GUCUCAAUUUGCCUUUGACTT (SEQ ID NO: 27), antisense GUCAAAGGCAAAUUGAGACTT (SEQ ID NO: 191) (sugars from the 5' end r19 d2, backbone not given here) | 1.51 | 0.59
6 | RAG7-184: saRNA duplex; sense UGUCUCAAUUUGCCUUUGATT (SEQ ID NO: 16), antisense UCAAAGGCAAAUUGAGACATT (SEQ ID NO: 180) (sugars from the 5' end r19 d2, backbone not given here) | 1.59 | 0.67
7 | RAG7-185: saRNA duplex; sense UUGUCUCAAUUUGCCUUUGTT (SEQ ID NO: 116), antisense CAAAGGCAAAUUGAGACAATT (SEQ ID NO: 280) (sugars from the 5' end r19 d2, backbone not given here) | 1.19 | 0.25
8 | RAG7-186: saRNA duplex; sense CUUGUCUCAAUUUGCCUUUTT (SEQ ID NO: 78), antisense AAAGGCAAAUUGAGACAAGTT (SEQ ID NO: 242) (sugars from the 5' end r19 d2, backbone not given here) | 1.28 | 0.35
9 | RAG7-187: saRNA duplex; sense UCUUGUCUCAAUUUGCCUUTT (SEQ ID NO: 123), antisense AAGGCAAAUUGAGACAAGATT (SEQ ID NO: 287) (sugars from the 5' end r19 d2, backbone not given here) | 1.17 | 0.22
10 | RAG7-188: saRNA duplex; sense UUCUUGUCUCAAUUUGCCUTT (SEQ ID NO: 21), antisense AGGCAAAUUGAGACAAGAATT (SEQ ID NO: 185) (sugars from the 5' end r19 d2, backbone not given here) | 1.55 | 0.64
11 | RAG7-189: saRNA duplex; sense CUUCUUGUCUCAAUUUGCCTT (SEQ ID NO: 35), antisense GGCAAAUUGAGACAAGAAGTT (SEQ ID NO: 199) (sugars from the 5' end r19 d2, backbone not given here) | 1.47 | 0.56
12 | RAG7-190: saRNA duplex; sense CCUUCUUGUCUCAAUUUGCTT (SEQ ID NO: 130), antisense GCAAAUUGAGACAAGAAGGTT (SEQ ID NO: 294) (sugars from the 5' end r19 d2, backbone not given here) | 1.16 | 0.22
13 | RAG7-191: saRNA duplex; sense GCCUUCUUGUCUCAAUUUGTT (SEQ ID NO: 88), antisense CAAAUUGAGACAAGAAGGCTT (SEQ ID NO: 252) (sugars from the 5' end r19 d2, backbone not given here) | 1.25 | 0.32
14 | RAG7-193: saRNA duplex; sense GUGCCUUCUUGUCUCAAUUTT (SEQ ID NO: 113), antisense AAUUGAGACAAGAAGGCACTT (SEQ ID NO: 277) (sugars from the 5' end r19 d2, backbone not given here) | 1.19 | 0.26
15 | RAG7-194: saRNA duplex; sense GGUGCCUUCUUGUCUCAAUTT (SEQ ID NO: 48), antisense AUUGAGACAAGAAGGCACCTT (SEQ ID NO: 212) (sugars from the 5' end r19 d2, backbone not given here) | 1.38 | 0.47
16 | RAG7-195: saRNA duplex; sense AGGUGCCUUCUUGUCUCAATT (SEQ ID NO: 28), antisense UUGAGACAAGAAGGCACCUTT (SEQ ID NO: 192) (sugars from the 5' end r19 d2, backbone not given here) | 1.51 | 0.59
17 | RAG7-196: saRNA duplex; sense CAGGUGCCUUCUUGUCUCATT (SEQ ID NO: 38), antisense UGAGACAAGAAGGCACCUGTT (SEQ ID NO: 202) (sugars from the 5' end r19 d2, backbone not given here) | 1.45 | 0.54
18 | RAG7-198: saRNA duplex; sense UACAGGUGCCUUCUUGUCUTT (SEQ ID NO: 134), antisense AGACAAGAAGGCACCUGUATT (SEQ ID NO: 298) (sugars from the 5' end r19 d2, backbone not given here) | 1.16 | 0.21
19 | RAG7-670: saRNA duplex; sense CAGGGCUGUUAUCUGCAUATT (SEQ ID NO: 136), antisense UAUGCAGAUAACAGCCCUGTT (SEQ ID NO: 300) (sugars from the 5' end r19 d2, backbone not given here) | 1.15 | 0.20
20 | RAG7-676: saRNA duplex; sense UCUAUGCAGGGCUGUUAUCTT (SEQ ID NO: 83), antisense GAUAACAGCCCUGCAUAGATT (SEQ ID NO: 247) (sugars from the 5' end r19 d2, backbone not given here) | 1.26 | 0.33
21 | RAG7-677: saRNA duplex; sense AUCUAUGCAGGGCUGUUAUTT (SEQ ID NO: 20), antisense AUAACAGCCCUGCAUAGAUTT (SEQ ID NO: 184) (sugars from the 5' end r19 d2, backbone not given here) | 1.56 | 0.64
22 | RAG7-678: saRNA duplex; sense CAUCUAUGCAGGGCUGUUATT (SEQ ID NO: 63), antisense UAACAGCCCUGCAUAGAUGTT (SEQ ID NO: 227) (sugars from the 5' end r19 d2, backbone not given here) | 1.33 | 0.41
23 | RAG7-679: saRNA duplex; sense UCAUCUAUGCAGGGCUGUUTT (SEQ ID NO: 107), antisense AACAGCCCUGCAUAGAUGATT (SEQ ID NO: 271) (sugars from the 5' end r19 d2, backbone not given here) | 1.20 | 0.27
24 | RAG7-681: saRNA duplex; sense CCUCAUCUAUGCAGGGCUGTT (SEQ ID NO: 149), antisense CAGCCCUGCAUAGAUGAGGTT (SEQ ID NO: 313) (sugars from the 5' end r19 d2, backbone not given here) | 1.13 | 0.17
25 | RAG7-684: saRNA duplex; sense CAUCCUCAUCUAUGCAGGGTT (SEQ ID NO: 47), antisense CCCUGCAUAGAUGAGGAUGTT (SEQ ID NO: 211) (sugars from the 5' end r19 d2, backbone not given here) | 1.39 | 0.47
26 | RAG7-686: saRNA duplex; sense UGCAUCCUCAUCUAUGCAGTT (SEQ ID NO: 86), antisense CUGCAUAGAUGAGGAUGCATT (SEQ ID NO: 250) (sugars from the 5' end r19 d2, backbone not given here) | 1.25 | 0.32
27 | RAG7-687: saRNA duplex; sense AUGCAUCCUCAUCUAUGCATT (SEQ ID NO: 162), antisense UGCAUAGAUGAGGAUGCAUTT (SEQ ID NO: 326) (sugars from the 5' end r19 d2, backbone not given here) | 1.10 | 0.14
